From EP2253324A1, “Use of a casein-derived peptide and compositions thereof as antihypertensive” (CONSEJO SUPERIOR DE INVESTIGACIONES CIENTIFICAS, priority 2009, dated 2010)
Read-outs that look alike come from different tables or passages of the source. Where no end group is shown, it is not given here.

Experiments:
[1] = molecular target: T1, Angiotensin-converting enzyme (Oryctolagus cuniculus, UniProt P12822); experiment: ACE-inhibitory activity, spectrophotometric assay (Cushman & Cheung, modified); format: biochemical; settings: synthetic peptides
T1 sequence (P12822 34-1310): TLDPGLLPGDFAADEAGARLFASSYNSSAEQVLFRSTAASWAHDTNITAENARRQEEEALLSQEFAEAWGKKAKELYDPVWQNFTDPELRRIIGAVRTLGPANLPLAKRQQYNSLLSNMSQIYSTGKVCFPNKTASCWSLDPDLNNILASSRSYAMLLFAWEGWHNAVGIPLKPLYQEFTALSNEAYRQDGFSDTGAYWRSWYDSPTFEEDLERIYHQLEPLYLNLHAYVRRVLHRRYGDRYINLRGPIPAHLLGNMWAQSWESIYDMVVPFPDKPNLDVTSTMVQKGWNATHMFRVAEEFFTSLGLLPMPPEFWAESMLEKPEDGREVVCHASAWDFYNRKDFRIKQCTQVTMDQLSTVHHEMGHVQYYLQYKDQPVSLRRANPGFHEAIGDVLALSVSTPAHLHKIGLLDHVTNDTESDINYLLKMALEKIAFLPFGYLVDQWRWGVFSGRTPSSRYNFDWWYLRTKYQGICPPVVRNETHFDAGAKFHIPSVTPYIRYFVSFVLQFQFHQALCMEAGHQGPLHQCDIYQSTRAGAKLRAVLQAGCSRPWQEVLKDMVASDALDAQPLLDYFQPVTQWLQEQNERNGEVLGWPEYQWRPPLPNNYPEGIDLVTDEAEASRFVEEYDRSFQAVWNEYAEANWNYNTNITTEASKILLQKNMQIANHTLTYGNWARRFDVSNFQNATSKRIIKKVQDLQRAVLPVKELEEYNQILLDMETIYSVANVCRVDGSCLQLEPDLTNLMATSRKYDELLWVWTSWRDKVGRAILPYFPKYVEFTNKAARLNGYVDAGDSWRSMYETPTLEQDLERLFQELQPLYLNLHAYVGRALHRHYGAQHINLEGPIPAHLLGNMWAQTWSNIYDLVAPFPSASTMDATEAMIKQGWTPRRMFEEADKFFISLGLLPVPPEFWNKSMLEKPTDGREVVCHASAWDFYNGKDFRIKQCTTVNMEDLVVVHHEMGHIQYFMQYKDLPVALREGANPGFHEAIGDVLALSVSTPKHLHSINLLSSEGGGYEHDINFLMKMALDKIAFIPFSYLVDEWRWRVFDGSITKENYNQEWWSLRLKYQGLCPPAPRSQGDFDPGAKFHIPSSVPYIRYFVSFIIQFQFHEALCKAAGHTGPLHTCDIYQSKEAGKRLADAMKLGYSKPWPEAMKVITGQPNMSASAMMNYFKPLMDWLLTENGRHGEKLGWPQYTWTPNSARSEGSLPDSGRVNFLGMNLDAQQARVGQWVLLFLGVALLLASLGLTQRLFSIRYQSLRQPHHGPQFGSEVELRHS
Protocol: ACE-inhibitory activity was measured by Cushman & Cheung 1971 (Biochemical Pharmacology, 20, 1637-1648) spectrophotometric assay with some modifications, as reported by (Quirós et al., 2007). For this purpose, protein concentration of the aliquots of the pepsin hydrolysate was determined by the Kjeldahl method. The protein content of the fractions collected from HPLC was estimated by the bicinchoninic acid assay (Pierce, Rockford, IL, USA) using bovine serum albumin, as standard, and peptide concentration of the chemically synthesized peptides was based in the dry weight of the peptides. Chemical synthesized peptides were purchased from GenScript Corp. (Piscataway, NJ, USA).

SHR rats = experiment: Systolic blood pressure in spontaneously hypertensive rats, tail-cuff method; format: in vivo; settings: single oral dose 5 mg kg^-1, followed up to 24 hours
Protocol: All procedures were carried out in accordance with conventional guidelines for experimentation with animals. Twelve-week old male SHR rats were used (Janvier, France); they were housed in groups of four per cage in a regulated environment with a 12 h light/dark cycle in a standard experimental laboratory of the Animal Experimentation Service of the Salamanca University (N°PAE SA001). The animals were deprived of solid diet 12 hours before experiments began but received a nutritive solution of 8% sucrose in 0.2% NaCl to avoid excessive dehydratation. The rats received a single dose of the synthesized peptides or zofenopril (5 mg kg^-1) dissolved in ultrapure water and the control group received the same volume of water. Systolic blood pressure (SBP) was measured in awake rats with an automated multichannel system, using the tail-cuff method with a photoelectric sensor (Niprem 546, Cibertec SA, Spain) as described in Guerrero et al., 2003 (Journal of Cardiovascular Pharmacology 42: 348-355). SBP was measured before administration, and also at 2, 4, 6, 8, 10 and 24 hours post-administration. The changes in SBP were expressed as the differences before and after administration of the different products. Unpaired student's t-test was used to compare groups.

ACE = ACE (Homo sapiens, UniProt P12821); settings: cited from earlier work; for IC50: literature values; for ACE-inhibitory activity: literature, in vitro
SHR = settings: literature; cited from earlier work
human volunteers = settings: literature; cited from earlier work
[2] = mean ± standard error (n=3), read-out: IC50± SE

ACE, sequence (P12821 30-1306, species assumed): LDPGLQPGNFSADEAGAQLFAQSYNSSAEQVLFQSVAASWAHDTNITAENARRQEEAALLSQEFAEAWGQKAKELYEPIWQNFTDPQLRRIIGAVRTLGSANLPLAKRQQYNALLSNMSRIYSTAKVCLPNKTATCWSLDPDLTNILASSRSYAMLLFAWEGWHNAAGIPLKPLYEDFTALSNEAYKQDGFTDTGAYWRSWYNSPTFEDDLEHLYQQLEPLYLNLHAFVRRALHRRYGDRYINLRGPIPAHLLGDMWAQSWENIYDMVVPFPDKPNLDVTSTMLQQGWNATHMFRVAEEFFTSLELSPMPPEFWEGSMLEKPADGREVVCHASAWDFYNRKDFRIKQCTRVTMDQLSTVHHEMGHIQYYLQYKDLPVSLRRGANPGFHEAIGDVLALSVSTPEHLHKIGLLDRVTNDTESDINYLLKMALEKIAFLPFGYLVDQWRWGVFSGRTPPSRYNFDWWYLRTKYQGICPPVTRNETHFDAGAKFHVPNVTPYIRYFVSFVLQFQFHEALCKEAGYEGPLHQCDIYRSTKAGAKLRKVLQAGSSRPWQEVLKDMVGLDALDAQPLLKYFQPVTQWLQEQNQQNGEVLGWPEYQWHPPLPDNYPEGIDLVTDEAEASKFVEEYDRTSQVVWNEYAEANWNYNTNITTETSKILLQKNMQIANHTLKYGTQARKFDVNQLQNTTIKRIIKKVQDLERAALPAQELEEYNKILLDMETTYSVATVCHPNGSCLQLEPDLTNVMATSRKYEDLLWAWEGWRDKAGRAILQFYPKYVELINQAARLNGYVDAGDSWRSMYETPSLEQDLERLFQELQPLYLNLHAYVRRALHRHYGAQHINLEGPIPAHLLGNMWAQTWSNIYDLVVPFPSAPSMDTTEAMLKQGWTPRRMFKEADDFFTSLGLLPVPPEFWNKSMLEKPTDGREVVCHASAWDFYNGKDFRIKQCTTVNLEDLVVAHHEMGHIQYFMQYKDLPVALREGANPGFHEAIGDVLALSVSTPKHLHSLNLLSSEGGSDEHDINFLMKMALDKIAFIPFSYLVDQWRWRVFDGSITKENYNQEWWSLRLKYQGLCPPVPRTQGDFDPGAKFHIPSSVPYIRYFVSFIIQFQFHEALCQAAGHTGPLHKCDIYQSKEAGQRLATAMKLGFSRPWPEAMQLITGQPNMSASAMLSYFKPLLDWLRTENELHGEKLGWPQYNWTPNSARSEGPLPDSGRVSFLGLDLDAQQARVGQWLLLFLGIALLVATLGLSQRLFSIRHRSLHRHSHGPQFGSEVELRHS

AYFYPEL [AYFYPEL]
IC50 [1, 2]: 6.58 ± 0.5 µM
IC50 ([1]; values in text, read-out: IC50): < 20 µM

FVAPFPEV [FVAPFPEV]
IC50 [1, 2]: 476 ± 41.7 µM

HLPLPLL [HLPLPLL]
IC50 [1, 2]: 34.4 ± 2.22 µM

RYLGY [RYLGY]
IC50 [1, 2]: 0.71 ± 0.08 µM
IC50 ([1]; values in text, read-out: IC50): < 20 µM
antihypertensive effect (change in SBP), in words (SHR rats): lowered SBP in a progressive and maintained manner

SEQ ID NO: 3: αs1-CN peptide previously described as an ACE inhibitor (DAYPSGAW)
IC50 (ACE): 98 µM

SEQ ID NO: 5: ACE-inhibitory peptide previously described in the literature, shares five residues with SEQ ID NO: 4 (ENLLRF)
IC50 (ACE): 82.4 µM

SEQ ID NO: 7: literature ACE-inhibitory sequence included in peptide SEQ ID NO: 6 (VTSTAV)
IC50 (ACE): 52 µM

SEQ ID O: 8: literature ACE-inhibitory peptide whose C-terminal tripeptide is LQY (FPQYLQY)
IC50 (ACE): 14 µM

VAPFPEVF [VAPFPEVF]
IC50 [1, 2]: 363 ± 23.6 µM

YQKFPQY [YQKFPQY]
IC50 [1, 2]: 20.1 ± 1.25 µM
IC50 ([1]; values in text, read-out: IC50): < 20 µM

αs1-casein f(23-27): literature peptide with ACE-inhibitory activity but no hypotensive effect in SHR (FFVAP; UniProt P02662 38-42, looked up, fragment)
ACE-inhibitory activity (ACE): potent ACE-inhibitory activity
hypotensive effect in SHR (SHR): no hypotensive effect

β-lactoglobulin f(142-148): literature peptide with in vitro ACE-inhibitory activity (ALPMHIR; UniProt P02754 158-164, looked up, fragment)
ACE-inhibitory activity (ACE): in vitro ACE-inhibitory activity
effect in human volunteers (human volunteers): did not have effect
